Where “and” joins values, the source holds several entries; their conditions need not be identical. Identical values can stand only once. Entries after “also recorded” stand apart in the source; their conditions may differ.
T1: I-A^S class II molecules (Mus musculus, UniProt P06345+P14437)
T1 sequence (P14437 1-233): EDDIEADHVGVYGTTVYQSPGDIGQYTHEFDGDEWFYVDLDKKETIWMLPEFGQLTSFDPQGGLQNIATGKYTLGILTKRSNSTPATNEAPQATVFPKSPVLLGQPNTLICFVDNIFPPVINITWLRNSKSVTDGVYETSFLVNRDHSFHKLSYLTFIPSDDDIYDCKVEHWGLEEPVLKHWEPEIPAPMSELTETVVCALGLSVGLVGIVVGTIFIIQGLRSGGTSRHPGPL
T1 sequence (P06345 28-263): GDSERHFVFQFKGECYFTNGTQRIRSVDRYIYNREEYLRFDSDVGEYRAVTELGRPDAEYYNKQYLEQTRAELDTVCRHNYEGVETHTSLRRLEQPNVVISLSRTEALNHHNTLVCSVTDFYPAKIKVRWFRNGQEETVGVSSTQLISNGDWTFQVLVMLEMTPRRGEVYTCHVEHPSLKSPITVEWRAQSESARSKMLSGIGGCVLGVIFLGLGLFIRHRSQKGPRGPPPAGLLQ

B1: proteolipid protein (protein, UniProt P60203 2-277, looked up)
Myelin proteolipid protein: GLLECCARCLVGAPFASLVATGLCFFGVALFCGCGHEALTGTEKLIETYFSKNYQDYEYLINVIHAFQYVIYGTASFFFLYGALLLAEGFYTTGAVRQIFGDYKTTICGKGLSATVTGGQKGRGSRGQHQAHSLERVCHCLGKWLGHPDKFVGITYALTVVWLLVFACSAVPVYIYFNTWTTCQSIAFPSKTSASIGSLCADARMYGVLPWNAFPGKVCGSNLLSICKTAEFQMTFHLFIAAFVGAAATLVSLLTFMIAATYNFAVLKLMGRGTKF
notes: native proteolipid protein purified from rat brain

Experiments:
[1] = molecular target: T1, I-A^S class II molecules; details: cited from earlier work
[2] = test system: PLP-LR specific T cells; assay: In vivo T cell response to PLP-LR after co-administration with Ig-PLP1; parameters: species or system SJL mice; details: co-administered with Ig-PLP1; lymph node and spleen cells, PLP-LR 15 μg/mL; FIG. 9
Description: Lymph node and spleen cells were obtained in the same manner as set forth in Example X following co-administration of Ig-PLP1 and Ig-PLP-LR. Proliferative responses in individual mice were also measured using the methods set out in the previous Example following in vitro stimulation with either free PLP1 peptide or PLP-LR peptide at 15 μg/mL. The results of the assays using lymph node and spleen cells are detailed in FIGS. 9A and 9B respectively.

[3] = test system: PLP1-specific T cell hybridoma 5B6; assay: T cell hybridoma activation assay (IL-2 production), 5B6; type: cell-based, mouse; details: SJL splenocyte APCs; 0.1 μM Ig chimeras, 1 μM peptides, 1.7 μM PLP; FIG. 3B
Description: (§1) PLP1-specific T cell hybridomas 5B6 and 4E3 and the IL-2 dependent HT-2 T helper cells were obtained from The Eunice Kennedy Shriver Center, Waltham, Mass. The 5B6 and 4E3 T cells recognize the peptide PLP1 in association with 1-A^S class II MHC and produces IL-2 when incubated with it as reported by Kuchroo et al., J. Immunol. 153:3326-3336, 1994 which is incorporated herein by reference. Conversely, Kuchroo et al. report that when stimulated with PLP1 and then with PLP-LR both 5B6 and 4E3 cells no longer produce IL-2.
(§2) Using substantially the same technique as Kuchroo et al., activation of the T cell hybridomas for various agonists was performed as follows. Irradiated (3,000 rads) splenocytes from SJL mice were used as antigen presenting cells (APCs) for this Example. The irradiated splenocytes were incubated in 96-well round bottom plates (5×10^5 cells/well/50 μl) with graded concentrations of antigens (100 μl/well). After one hour, T cell hybridomas, i.e. 5B6 of 4E3 (5×10^4 cells/well/50 μl) were added and the culture was continued overnight. Activation (or proliferation) of the T cells was assessed by measuring production of IL-2 in the culture supernatant. This was done by ^3H-thymidine incorporation using the IL-2 dependent HT-2 cells. That is, when IL-2 is present (i.e. secreted by activated T cells) the HT-2 cells proliferate, incorporating labeled thymidine from the surrounding media.
(§3) The culture media used to carry out these assays was DMEM supplemented with 10% FBS, 0.05 mM 2-mercaptoethenol, 2 mM glutamine, 1 mM sodium puryvate and 50 μg/mL gentamycin sulfate. Briefly, culture supernatants (100 μl/well) were incubated with HT-2 cells (1×10^4 cells/well/100 μl) in 96-well flat bottom plates for 24 hours. Subsequently 1 μCi ^3H-thymidine was added per well and the culture was continued for an additional 12-14 hours. The cells were then harvested on glass fiber filters and the non incorporated ^3H-thymidine was washed away. Incorporated thymidine was then counted using the trace 96 program and an Inotech β counter. It will be appreciated that those wells containing higher levels of IL-2 (secreted by the activated T cell hybridoma lines) will induce higher levels of HT-2 cell proliferation and register increased levels of ^3H-thymidine incorporation.

[4] = test system: 4E3 T cell hybridomas; assay: Prepulsed proliferation assay: antagonism of agonist mediated T cell activation; type: cell-based, mouse; parameters: key to T cell antagonism, Stimulator (Agonist) PLP1 / T cell antagonism, Stimulator (Agonist) PLP / T cell antagonism, Stimulator (Agonist) Ig-PLP1: +: a plus sign indicates inhibition of IL-2 production and therefore antagonism; −: a minus sign indicates little or no inhibition of IL-2 production and therefore little or no antagonism; details: for antagonism of Ig-PLP1 mediated T cell activation (IL-2 production): agonist 0.05 μM Ig-PLP1, FIG. 5B; for control thymidine incorporation (agonist, no antagonist): 1 μM PLP1 peptide, 0.05 μM Ig-PLP1 or 7 μM PLP, background not deducted
Description: Irradiated (3,000 rads) SJL splenocytes (used as APCs) were incubated in 96-well round bottom plates (5×10^5 cells/well/50 μl) with the selected agonist (1 μM PLP1 peptide, 0.05 μM Ig-PLP1 or 7 μM PLP) and various concentrations of antagonist (100 μl/well) for 1 hour. Subsequently, 4E3 T cell hybridomas (5×10^4 cells/well/50 μl) were added and the culture was continued overnight. IL-2 production in the supernatant, determined as in Example VI using HT-2 cells, was used as measure of T cell activation.
Cpm values obtained when the APCs were incubated with the agonist but no antagonist was used as control thymidine incorporation. This value was 7,503±1,302 for Ig-PLP1; 31,089±3,860 for PLP1 peptide; and 8,268±915 for PLP. The cpm value obtained when the APCs were incubated with no agonist or antagonist was used as background (BG). This value was 1,560±323 for Ig-PLP1; 2,574±290 for PLP1 peptide; and 2,127±177 for PLP. The percent control thymidine incorporation was calculated as follows: [(cpm obtained in the presence of test antagonist)−(BG)]/[(cpm control thymidine incorporation value)−(BG)]. Each point represents the mean of triplicates.

[5] = test system: T cell hybridomas; details: reported by Kuchroo et al.; cited from earlier work
[6] = test system: PLP1-specific T cell hybridoma 4E3; assay: T cell hybridoma activation assay (IL-2 production), 4E3; type: cell-based, mouse; details: for IL-2 production by T cell hybridoma 4E3: SJL splenocyte APCs, 0.1 μM Ig chimeras, 1 μM peptides, 1.7 μM PLP, FIG. 3A; for EC50: 4E3 hybridoma, irradiated SJL/J splenocytes, IL-2 by HT-2 3H-thymidine incorporation, FIG. 4, read-out: stimulation to half the maximum level
Description: as §1, §2, §3
Specifically, different concentrations of the three antigens (i.e. agonists) were incubated with irradiated SJL/J splenocytes which were subsequently associated with 4E3 T cell hybridomas. IL-2 production was measured by ^3H-thymidine incorporation using the IL-2 dependent HT-2 cells as described in Example VI. Each point represents the mean of triplicates.

[7] = test system: PLP1 specific T cells; assay: In vivo inhibition of T cell response to PLP1 on co-administration with Ig-PLP1; parameters: species or system SJL mice
Description: Mice were co-immunized with mixtures of either 50 μg Ig-PLP1 and 150 μg Ig-PLP-LR or 50 μg Ig-PLP1 combined with 150 μg Ig-W. In particular, individual mice from three groups (4 mice per group) were injected sc, as in Example X with a 200 μl mixture (PBS/CFA, 1:1 v/v) containing one of the following mixtures: 50 μg Ig-PLP1 and 150 μg Ig-PLP-LR; 50 μg Ig-PLP1 and 150 μg Ig-W; or Ig-PLP1 and 100 μg PLP-LR peptide. Splenic and lymph node T cell responses were analyzed at day 10 post immunization using the protocol set forth in Example X. The lymph node cells were assayed at 4×10^5 cells/well and the spleen cells at 10×10^5 cells/well. The agonist ligand was PLP1 at 15 μg/mL. Results for the lymph node and spleen cells, shown in FIGS. 8A and 8B respectively and summarized in Table 2 below, represent the mean±SD of triplicates after deduction of background cpm obtained with no agonist in the media.
(mean cpm of triplicates obtained with PLP1 stimulation−mean cpm triplicate BG)/(mean cpm of triplicates obtained with PPD−mean cpm triplicate BG)×100

[8] = test system: SJL mice; details: cited from earlier work

EC50 [6] [nM]	Molecule	binding to I-A^S class II molecules [1]	T cell response to PLP-LR [2]	IL-2 production by T cell hybridoma 5B6 [3]	antagonism of Ig-PLP1 mediated T cell activation (IL-2 production) [4]	IC50 ([4]; agonist 1 μM PLP1 peptide, FIG. 5A, read-out: Inhibition of IL-2 production to half the maximum level (60% control thymidine incorporation)) [nM]	antagonism of native PLP mediated T cell activation (IL-2 production) ([4]; agonist 7 μM PLP, FIG. 5C)	T cell antagonism, Stimulator (Agonist) Ig-PLP1 ([4]; agonist Ig-PLP1, summary of FIG. 5)	T cell antagonism, Stimulator (Agonist) PLP1 ([4]; agonist PLP1, summary of FIG. 5)	T cell antagonism, Stimulator (Agonist) PLP ([4]; agonist PLP, summary of FIG. 5)	effect on IL-2 production of T cell hybridomas stimulated with PLP1 [5]	IL-2 production by T cell hybridoma 4E3 [6]	PLP1/PPD (%) ([7]; co-administered sc with 50 μg Ig-PLP1 (150 μg Ig or 100 μg peptide), day 10, individual mice 1-4, PLP1 specific relative to PPD specific proliferation, listed as PLP-LR peptide)	reduction of immune response to PLP1 peptide ([7]; co-administered with Ig-PLP1, lymph node and spleen cells, FIG. 8)	control thymidine incorporation (agonist, no antagonist) [4]	encephalitogenic activity / EAE induction [8]	antagonism of PLP1 peptide mediated T cell activation (IL-2 production) ([4]; agonist 1 μM PLP1 peptide, FIG. 5A)
	HSLGKLLGRPNKF [PLP-LR, analog of PLP1 in which Trp144 and His147 were replaced with Leu and Arg]	bind well	induction of PLP-LR-specific response	did not stimulate 5B6 and 4E3 to produce significant levels of IL-2	did not show any significant antagonism; also recorded: failed to inhibit T cell activation	9000	failed to inhibit T cell activation	−	+	−	inhibits IL-2 production	did not stimulate 5B6 and 4E3 to produce significant levels of IL-2	93% and 100% and 81% and 91%	no indication that the PLP1 response was reduced; also recorded: no evident reduction in the proliferative response to PLP1			
600	HSLGKWLGHPNKF [PLP1, a peptide fragment of PLP comprising aa residues 139-151]	bind well		substantial levels of IL-2								substantial levels of IL-2			31,089±3,860 cpm	encephalitogenic	
	NTWTTCQSIAFPSK [PLP2, a peptide fragment of PLP comprising aa residues 178-191]	binds		did not induce the production of IL-2	did not show any significant antagonism							did not induce the production of IL-2				induces EAE	antagonist effects were not observed
500	B1			substantial levels of IL-2								substantial levels of IL-2			8,268±915 cpm		

Reference: patent US6737057B1, “Compounds, compositions and methods for the endocytic presentation of immunosuppressive factors” (The University of Tennessee Research Corporation, priority 1997, dated 2004)
